According to patent US11491127B2, “Therapeutic use of compounds” (UCL BUSINESS LTD, priority 2010, dated 2022):

How the values were obtained:
[1] = system: phosphoinositide (PIP and PIP2) turnover in Dictyostelium AX2 cells; test: Dictyostelium phospholipid labelling (PIP and PIP2 turnover); type: cell-based, Dictyostelium discoideum; details: wild type Dictyostelium; for activity at 500 µM: Dictyostelium, 0.1 h, read-out: PIP Level (% control), Table 1, 0.5 mM compound, 3 min pre-treatment + 6 min labelling
Experimental: Phospholipid labelling was quantified using a Typhoon phosphor-imager. Even loading was determined using total lipid stain with copper sulphate.

[2] = system: inositol trisphosphate (InsP3) levels in Dictyostelium; details: Eickholt et al., 2005; cited from earlier work
[3] = system: self-sustaining status epilepticus in Sprague Dawley rats; details: previously shown (Chang et al., 2009); cited from earlier work
[4] = system: self-sustaining status epilepticus in Sprague Dawley rats; test: In vivo status epilepticus (perforant path stimulation); set-up: species or system rat; details: 400 mg/kg
Experimental: This method has been described in detail previously (Walker et al., 1999). In brief, male Sprague Dawley rats […] were anesthetized with 1-2% isoflurane in O2. An earth electrode was positioned subcutaneously, and a monopolar recording electrode was implanted stereotactically into the right hippocampus (coordinates, 2.5 mm lateral and 4 mm caudal from bregma). A bipolar stimulating electrode was implanted in the right hemisphere and advanced into the angular bundle (coordinates, 4.4 mm lateral and 8.1 mm caudal from bregma) to stimulate the perforant path. The depths of the electrodes were adjusted to maximize the slope of the dentate granule cell field potential (Guo et al., 1999). The electrodes were held in place with dental acrylic and skull screws. The animals were allowed to recover from anaesthesia. Seven days later, the perforant path was electrically stimulated with 4-5 mA 50 μsec monopolar pulses at 20 Hz for 2 hr; this induced self-sustaining status epilepticus. After 10 min of self-sustaining status epilepticus, compounds or vehicle were administered and the behavioural seizures and EEG were monitored for 3 hours. At this point diazepam (10 mg/kg) was administered to all animals to stop the status epilepticus. Groups were compared by ANOVA followed by post-hoc testing using Tukey test, using SPSS.

[5] = system: release of 3H arachidonic acid / palmitic acid radiolabel from Dictyostelium cells; test: Fatty acid release (3H radiolabel release from labelled cells); type: cell-based, Dictyostelium discoideum
[6] = system: low magnesium-induced burst discharges in entorhinal cortex-hippocampal slices; test: In vitro low Mg2+ acute seizure model, entorhinal cortex-hippocampus slices; type: cell-based, rat; details: 1 mM, 30-40 minutes after application
Experimental: The rats (p21) were decapitated after killing by intraperitoneal injection with an overdose of pentobarbitone (500 mg/kg). The brain was removed and placed in ice-cold sucrose solution in mM: NaCl 87, KCl 2.5, MgCl2 7, CaCl2 0.5, NaH2PO4 1.25, sucrose 75, glucose 25, equilibrated with 95% 02/5% CO2 (pH 7.4). Horizontal combined entorhinal cortex-hippocampus slices (350 μm) were prepared with a Leica vibratome (Leica V T1200S) and were then stored in an interface chamber that contained artificial cerebrospinal fluid solution (aCSF) containing in mM: NaCl 119, KCl 2.5, MgSO4 4, CaCl2 4, NaHCO326.2, NaH2PO4 1, glucose 11, and gassed with 95% O2/5% CO2. They were stored for over one hour before being transferred to a submersion recording chamber continually perfused with carbogenated aCSF for recording. Field potential recordings were made by placing glass microelectrodes (˜1-2 MΩ) filled with aCSF solution in stratum radiatum of CA1. Bipolar stimulating electrodes were positioned in the Schaffer collateral/commissural fibre pathway in stratum radiatum to confirm slice viability. In the PTZ acute seizure model, PTZ (2 mM) was added to the perfusate and [K+] was increased to 6 mM in order to induce epileptiform activity (Armand et al., 1998). […] Anticonvulsant effects were evaluated by measuring the variation of frequency of the discharges every minute. […]

[7] = system: PTZ-induced epileptiform activity in entorhinal cortex-hippocampal slices; test: In vitro PTZ acute seizure model, entorhinal cortex-hippocampus slices; type: cell-based, rat; details: PTZ 2 mM, [K+] 6 mM; compounds equimolar 1 mM; 30 to 40 minutes after application
Experimental: The rats (p21) were decapitated after killing by intraperitoneal injection with an overdose of pentobarbitone (500 mg/kg). The brain was removed and placed in ice-cold sucrose solution in mM: NaCl 87, KCl 2.5, MgCl2 7, CaCl2 0.5, NaH2PO4 1.25, sucrose 75, glucose 25, equilibrated with 95% 02/5% CO2 (pH 7.4). Horizontal combined entorhinal cortex-hippocampus slices (350 μm) were prepared with a Leica vibratome (Leica V T1200S) and were then stored in an interface chamber that contained artificial cerebrospinal fluid solution (aCSF) containing in mM: NaCl 119, KCl 2.5, MgSO4 4, CaCl2 4, NaHCO326.2, NaH2PO4 1, glucose 11, and gassed with 95% O2/5% CO2. They were stored for over one hour before being transferred to a submersion recording chamber continually perfused with carbogenated aCSF for recording. Field potential recordings were made by placing glass microelectrodes (˜1-2 MΩ) filled with aCSF solution in stratum radiatum of CA1. Bipolar stimulating electrodes were positioned in the Schaffer collateral/commissural fibre pathway in stratum radiatum to confirm slice viability. In the PTZ acute seizure model, PTZ (2 mM) was added to the perfusate and [K+] was increased to 6 mM in order to induce epileptiform activity (Armand et al., 1998). In the low Mg^2+ acute seizure model, Mg^2+ free aCSF was applied to generate rhythmic short recurrent discharges. Novel anticonvulsants were applied once the frequency and amplitude of the epileptiform discharges were stable over a period of 10 min. Anticonvulsant effects were evaluated by measuring the variation of frequency of the discharges every minute. The data acquired from the 30 to 40 minutes after application novel anticonvulsants were compared by ANOVA followed by post-hoc testing using Tukey test, using SPSS statistical analysis.

[8] = system: uptake of 3H arachidonic acid / palmitic acid into Dictyostelium cells; test: Fatty acid uptake (3H radiolabel incorporation into cells); type: cell-based, Dictyostelium discoideum; details: 3H-AA; FIG. 9
[9] = system: inositol levels in Dictyostelium cells; test: Inositol levels in treated Dictyostelium cells; type: cell-based, Dictyostelium discoideum; details: time period causing phosphoinositide attenuation (9 min)
Experimental: Following a 6 min incubation, labelling solution was removed and cells were lysed in acidified methanol and phospholipids were separated as previously detailed (Williams et al., 1999). Phospholipid labelling was quantified using a Typhoon phosphor-imager. Even loading was determined using total lipid stain with copper sulphate. Inositol levels were measured from five hour developed cells (similar to phospholipid labelling), following lyophilisation, as previously described (Maslanski & Busa, 1990).

[10] = target: T1, human myo-inositol synthase (Homo sapiens, UniProt Q9NPH2); details: Shaltiel et al., 2004, 2007a; cited from earlier work
T1 sequence (Q9NPH2 1-558): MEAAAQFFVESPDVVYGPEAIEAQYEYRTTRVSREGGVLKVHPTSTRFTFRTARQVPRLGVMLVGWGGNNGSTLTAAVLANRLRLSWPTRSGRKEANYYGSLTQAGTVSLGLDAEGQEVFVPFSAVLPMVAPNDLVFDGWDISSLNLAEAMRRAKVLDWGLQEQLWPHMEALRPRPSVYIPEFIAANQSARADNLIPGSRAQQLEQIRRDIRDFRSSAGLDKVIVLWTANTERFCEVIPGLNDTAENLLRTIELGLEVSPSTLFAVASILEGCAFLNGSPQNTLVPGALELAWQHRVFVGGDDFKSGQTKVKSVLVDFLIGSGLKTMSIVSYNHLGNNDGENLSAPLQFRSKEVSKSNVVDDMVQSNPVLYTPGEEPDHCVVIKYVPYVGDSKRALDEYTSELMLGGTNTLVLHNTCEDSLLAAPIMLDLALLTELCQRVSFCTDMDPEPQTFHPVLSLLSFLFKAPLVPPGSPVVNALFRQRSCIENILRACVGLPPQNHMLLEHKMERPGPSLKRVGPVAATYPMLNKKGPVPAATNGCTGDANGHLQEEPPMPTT

Question: For `CCC=C(C)C(=O)O` [2-methyl-2-pentenoic acid], which activity at 500 µM [1] is on record?
Answer: Its activity at 500 µM is 14.8%.

Question: And the InsP3 depletion [2]?
Answer: The InsP3 depletion was “strong InsP3 depletion”.

Question: Which “response of the status epilepticus model” value [3] does the source give for `O=C1NC(=O)C(c2ccccc2)(c2ccccc2)N1` [phenytoin] here?
Answer: Its value is “resistant”.

Question: Which “animals in which status epilepticus terminated (spike frequency of less than 1 Hz)” value [4] does the source give for `CCCCC(C)CCC(=O)O` (centres unmarked) [4-methyloctanoic acid] here?
Answer: The value was “all”.

Question: And the “seizure control in words” value ([4]; 3 hour test period)?
Answer: The value was “protected against seizures over the test period”.

Question: What about the “animals in which seizures completely stopped” value ([4]; after 2 hours, 7 animals per group) of the same compound?
Answer: The value was 7 animals.

Question: And the “animals in which seizure stop was maintained” value ([4]; by three hours)?
Answer: Its value is “five out of seven”.

Question: And the mean spike frequency ([4]; first hour)?
Answer: The mean spike frequency was 39.3±11.3%.

Question: What about the mean spike frequency ([4]; second hour) of the same compound?
Answer: Its mean spike frequency is 18.1±10.3%.

Question: And the mean spike frequency ([4]; third hour)?
Answer: The mean spike frequency was 26.9±12.3%.

Question: What about the “inhibitory effect on radiolabel release” value ([5]; 3H-AA, FIG. 9) of the same compound?
Answer: The value was “weak”.

Question: And the activity at 500 µM ([5]; Dictyostelium, 0.5 h, Table 3, 3H-AA labelled cells, 30 min, 0.5 mM treatment, read-out: AA release [% of control])?
Answer: Its activity at 500 µM is 66%.

Question: What about the activity at 500 µM [1] of the same compound?
Answer: Its activity at 500 µM is 12%.

Question: What about the “reduction of PIP2 signalling” value ([1]; Table 1) of the same compound?
Answer: The value was 93%.

Question: And the “reduction of PIP signalling” value ([1]; Table 1)?
Answer: The value was 88%.

Question: And the “frequency of low magnesium-induced burst discharges” value [6]?
Answer: Its value is “almost abolished”.

Question: What about the “frequency of low magnesium-induced burst discharges” value ([6]; listed as 4-MO) of the same compound?
Answer: The value was 1.6±3.1 % of baseline.

Question: What about the “frequency of epileptiform discharges (seizure discharge frequency)” value [7] of the same compound?
Answer: Its value is 49.1±4.4%.

Question: What about the “effect on 3H-AA uptake compared with VPA” value [8] of the same compound?
Answer: Its value is “reduced effect on uptake”.

Question: What about the “reduction in inositol levels” value [9] of the same compound?
Answer: Its value is “do not acutely deplete inositol”.

Question: With `CCCC(CCC)C(N)=O` [valpromide, 2-propylpentamide, reference compound] as the compound, how does the “radiolabel release activity relative to control” value ([5]; Table 3, 30 min, 0.5 mM) read?
Answer: The value was “virtually no inhibition”.

Question: And the activity at 500 µM [1]?
Answer: The activity at 500 µM was 69.3%.

Question: And the “inhibition of human myo-inositol synthase” value [10]?
Answer: The value was “weak inhibition”.
